Assay [1] deals with mouse wound model (6 mm punch biopsy wound held open by a silicone splint ring). Kind of assay: In vivo mouse wound model: re-epithelialization (H&E) after Flx+ delivery from wearable bioelectronic bandage. An excerpt: (§1) FIG. 6 illustrates testing of the efficacy of the bioelectronic bandage in vivo on a mouse wound model. We created a 6 mm punch biopsy wound held open by a silicone splint ring to minimize wound contraction (FIG. 6A). Wound contraction is a major wound healing process in mice but not humans. It confounds the histological analysis of the wound reponse to therapy, particularly re-epithelialization [12b, 13]. A gas-permeable, transparent adhesive dressing, Tegaderm™, fixes the bioelectronic bandage to the mouse (FIG. 6A, right) so that the mouse can move around its cage without interference (FIG. 6B). This is possible because the lightweight bandage (2.5 g) represents less than 10% of the mouse weight. For this test, we programmed the bandage to deliver Flx^+ for three days for six hours per day (FIG. 6C).
(§2) We utilized a machine-learning algorithm reported to analyze images of wounds and evaluate their condition and healing progression (FIG. 6D). The algorithm automatically marked the wound area and analyzed the wound size (FIG. 6E). […] To further investigate healing, the wounds were fully excised at the end of the experiment, fixed, and stained with hematoxylin and eosin (H&E) to assess wound re-epithelialization (FIG. 6G-H). […] This variability allowed us to qualitatively correlate the dose of Flx^+ and wound healing as measured by the percentage of re-epithelization (FIG. 6J, right). […]

Assay [2] concerns M1 and M2 macrophages in the wound. Kind of assay: Macrophage analysis of the wound (immunohistochemistry, M1 iNOS / M2 CD206 / F4/80). In kind it is in vivo, mouse. An excerpt:
All cells (stained by DAPI, shown in blue), M1 (stained by iNOS, shown in green), M2 (stained by CD206, shown in red), and overall macrophages (stained by F4/80, shown in gray) were imaged and presented, FIG. 7b is an overlay of M1 and M2 staining, showing the distribution and ratio of macrophage subtypes, FIG. 7c is a box plot showing statistics of the M1/M2 ratio, which was 1.80+/−0.62 in the control group and 1.31+/−0.46 for the fluoxetine-treated group. […] The blue dot represents the M1/M2 ratio from the control group, and the red dot represents the fluoxetine-treated group. The dashed lines indicate the projected wound age, while the solid line represents the trend plotted from the data in the reference..
After analyzing the promising re-epithelization data, we delved deeper into another crucial indicator of wound healing: the M1/M2 macrophage ratio (FIG. 7). Macrophages play a pivotal role in the immune response and are crucially involved in the healing and regeneration of wounds. Although macrophages are phenotypically heterogeneous over a continuum, a simplified classification based on their polarized functions during the different stages of wound repair defines the M1 subtype that carries out pro-inflammatory activities and the M2 subtype that is anti-inflammatory and promotes tissue repair. […] Meanwhile, the number of M2-like macrophages increased in the center of the fluoxetine-treated wound, as depicted in FIG. 7A.

For assay [3], the system named is mouse wound model (6 mm punch biopsy wound). Put plainly: Wound size analysis from wound images by machine-learning algorithm. Particulars: fluoxetine-treated wounds, similar trend to control. In kind it is in vivo.
Excerpt: as §1, §2

`CNCCC(Oc1ccc(C(F)(F)F)cc1)c1ccccc1` (stereo not shown) [fluoxetine]: the “increase in re-epithelialization compared to control” value in assay [1] (Flx+ delivered from the bioelectronic bandage, three days, six hours per day, H&E of excised wounds, P<0.05) is 39.9%. Moreover, the “reepithelization in mouse 2 (>300 nMol per day Flx+) versus mouse 15 (10× smaller dose)” value in assay [1] (qualitative dose comparison, bioelectronic bandage) was “much faster”. Besides, in assay [2] (day 3, n=13 mice, P<0.05), the “decrease in M1/M2 ratio compared to control” value is listed as 27.2%. Besides, the M1/M2 ratio in assay [2] (fluoxetine-treated group, day 3, n=13 mice) was 1.31+/−0.46. The “number of M2-like macrophages in the center of the wound” value in assay [2] (fluoxetine-treated wound, day 3) was “increased”. The “M1 macrophage infiltration of the center of the wound” value in assay [2] (three days after injury, control wound significantly infiltrated) was “no change”. The “wound size trend over time” value in assay [3] was “slight increase in size at day 1, followed by a decrease on subsequent days”.

The record behind these values is patent publication US20240366930A1, “WEARABLE BIOELECTRONICS FOR PROGRAMMABLE DELIVERY OF THERAPY” (The Regents of the University of California, priority 2023, published 2024).
